From PMC10982999, “Structure-Guided Design and Optimization of Covalent VHL-Targeted Sulfonyl Fluoride PROTACs” (Journal of Medicinal Chemistry, 2024)

Legend:
AR-HiBiT LNCaP cells = conditions: 16 h, 75 μM-1 pM
[1] = biological target: T1, AR (AR-HiBiT LNCaP cells) (Homo sapiens, UniProt P10275, T878A); assay: AR HiBiT degradation assay; format: cell-based; conditions: for Dmax / DC50: LNCaP; for Dmax: read-out: Dmax (AR degradation); for AR degradation in presence of MLN4924: MLN4924 1 μM 3 h pretreatment, then compound 18 h; for AR degradation in presence of epoxomicin: epoxomicin 1 μM 3 h pretreatment, then compound 16 h; for DC50: read-out: DC50 (AR degradation), 16 h
T1 construct: host or cells: AR-HiBiT KI LNCaP
T1 sequence (P10275 1-920 T878A): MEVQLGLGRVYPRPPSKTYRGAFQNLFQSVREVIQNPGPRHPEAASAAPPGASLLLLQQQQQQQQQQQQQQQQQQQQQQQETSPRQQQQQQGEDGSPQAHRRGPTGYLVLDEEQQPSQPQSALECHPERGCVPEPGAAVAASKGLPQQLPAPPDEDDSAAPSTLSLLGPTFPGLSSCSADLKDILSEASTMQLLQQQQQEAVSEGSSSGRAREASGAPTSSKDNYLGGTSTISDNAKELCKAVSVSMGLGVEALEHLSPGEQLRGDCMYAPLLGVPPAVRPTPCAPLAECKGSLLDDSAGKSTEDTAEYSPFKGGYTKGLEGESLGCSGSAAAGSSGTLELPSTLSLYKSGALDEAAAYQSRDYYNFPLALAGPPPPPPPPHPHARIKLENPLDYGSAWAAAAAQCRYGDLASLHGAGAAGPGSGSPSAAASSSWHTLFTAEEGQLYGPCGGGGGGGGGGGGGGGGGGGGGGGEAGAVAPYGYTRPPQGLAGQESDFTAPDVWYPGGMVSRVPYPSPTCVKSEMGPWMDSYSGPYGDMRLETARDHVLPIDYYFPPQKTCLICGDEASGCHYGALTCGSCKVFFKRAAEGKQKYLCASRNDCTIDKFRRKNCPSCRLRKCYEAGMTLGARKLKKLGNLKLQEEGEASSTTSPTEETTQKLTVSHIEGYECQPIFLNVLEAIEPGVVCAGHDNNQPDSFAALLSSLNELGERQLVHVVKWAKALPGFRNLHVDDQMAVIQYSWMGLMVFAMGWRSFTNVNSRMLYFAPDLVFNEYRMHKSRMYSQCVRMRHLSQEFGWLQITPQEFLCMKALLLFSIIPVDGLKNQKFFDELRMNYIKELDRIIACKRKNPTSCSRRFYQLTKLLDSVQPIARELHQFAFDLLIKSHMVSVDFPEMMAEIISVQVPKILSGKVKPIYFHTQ
Description: Cellular BRD4/AR HiBiT assay
The HiBiT tagged cells were seeded at 10,000 cells per well in a 384-well plate (Thermo Scientific, 164610) at 25 µL per well in DMEM media containing 10% FBS and incubated overnight. Compounds were dispensed using D300e Digital Dispenser (HP) and normalized to 0.1% DMSO. Cells were pre-treated with Epoxomicin or MLN4924 for 3 h before treatment […]
Nano -Glo HiBiT lytic detection assay was performed as described in the manufacturer protocol (Promega). 25 µL of premixed detection reagent was added to each well of the 384 well assay plate and incubated for 15 min on an orbital shaker (at 600 RPM), and luminescence was read using a PHERAstar FS plate reader (BMG Labtech). Corresponding background RLU values were subtracted from DMSO control values and the percentage of protein (%) of were then calculated against […]
DMSO-treated controls. […]
1:1000 WB), Tubulin (Sigma #4967S 1:5000 WB).

Compound | cytotoxicity (CellTiter-Glo) (AR-HiBiT LNCaP cells) | Dmax [1] [%] | AR degradation in presence of MLN4924 [1] | AR degradation in presence of epoxomicin [1] | DC50 [1] [µM]
Cc1cc([C@H](C(=O)N2C[C@H](S(=O)(=O)F)C[C@H]2C(=O)N[C@@H](CC(=O)N2CCC(C#Cc3ccc(C(=O)N[C@H]4C(C)(C)[C@H](Oc5ccc(C#N)c(Cl)c5)C4(C)C)cc3)CC2)c2ccc(-c3scnc3C)cc2)C(C)C)on1 [AR2-VHL-SF2, (3R,5S)-5-(((S)-3-(4-((4-(((1r,3r)-3-(3-Chloro-4-cyanophenoxy)-2,2,4,4-tetramethylcyclobutyl)-carbamoyl)phenyl)ethynyl)piperidin-1-yl)-1-(4-(4-methylthiazol-5-yl)phenyl)-3-oxopropyl)-carbamoyl)-1-((R)-3-methyl-2-(3-methylisoxazol-5-yl)butanoyl)pyrrolidine-3-sulfonyl fluoride] | did not exhibit cytotoxicity | 59 | AR degradation blockade | AR degradation blockade | 0.212
Cc1cc([C@H](C(=O)N2C[C@H](S(=O)(=O)F)C[C@H]2C(=O)N[C@@H](CC(=O)N2CCC(C#Cc3ccc(C(=O)N[C@H]4C(C)(C)[C@H](Oc5ccc(C#N)c(C(F)(F)F)c5)C4(C)C)cc3)CC2)c2ccc(-c3scnc3C)cc2)C(C)C)on1 [AR-VHL-SF2, (3R,5S)-5-(((S)-3-(4-((4-(((1r,3r)-3-(4-Cyano-3-(trifluoromethyl)phenoxy)-2,2,4,4-tetramethyl-cyclobutyl)carbamoyl)phenyl)ethynyl)piperidin-1-yl)-1-(4-(4-methylthiazol-5-yl)phenyl)-3-oxo-propyl)carbamoyl)-1-((R)-3-methyl-2-(3-methylisoxazol-5-yl)butanoyl)pyrrolidine-3-sulfonyl fluoride] | did not exhibit cytotoxicity | 54 | AR degradation blockade | AR degradation blockade | 0.527
